Data taken from patent US11254640B2, “N-substituted indoles and other heterocycles for treating brain disorders” (The Regents of the University of California, priority 2019, dated 2022).
Where two headings read alike, the source gives them in different places.

Assays:
Assay type in all cases: cell-based
[1] = tested on: 5HT2A sensor; assay: 5HT2A sensor assay, antagonist mode (sLight1.3s HEK293T stable line); details: relative to 5-HT at 100 nM; for 5HT2A Antagonist mean @ 100 nM (%): 100 nM compound; for 5HT2A Antagonist mean @ 10 μM (%): 10 μM compound; for 5HT2A Antagonist mean @ 100 μM (%): 100 μM compound
Method in brief: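 Inactivation score is computed from membrane dFF as (dFF(compound+5HT)−dFF(5HT))/dFF(5HT), with HBSS-only fluorescence as Fapo. Final concentrations: 5-HT 100 nM added first, then compound at 100 nM, 10 μM or 100 μM in 0.1% DMSO. Triplicates; FITC imaging, 5 fields per well.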

[2] = biological target: T1, 5HT2A (Homo sapiens, UniProt P28223); assay: Calcium flux assay (Calcium secondary messenger pathway); details: agonist mode
T1 construct: expressed in transfected cells
T1 sequence (P28223 whole entry): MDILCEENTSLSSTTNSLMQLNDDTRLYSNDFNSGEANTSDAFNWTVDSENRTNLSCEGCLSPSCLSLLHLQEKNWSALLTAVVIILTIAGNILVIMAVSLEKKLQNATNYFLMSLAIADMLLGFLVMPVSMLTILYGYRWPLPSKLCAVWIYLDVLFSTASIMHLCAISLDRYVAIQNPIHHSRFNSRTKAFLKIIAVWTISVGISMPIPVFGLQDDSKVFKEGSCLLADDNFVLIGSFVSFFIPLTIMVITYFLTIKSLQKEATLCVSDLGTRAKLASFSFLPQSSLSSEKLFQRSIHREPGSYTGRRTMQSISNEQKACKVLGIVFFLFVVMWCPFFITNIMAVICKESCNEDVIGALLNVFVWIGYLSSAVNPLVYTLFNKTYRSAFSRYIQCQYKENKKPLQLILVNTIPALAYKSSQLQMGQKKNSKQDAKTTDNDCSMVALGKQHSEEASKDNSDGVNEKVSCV
Method in brief: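 Gq-coupled calcium mobilization in cells stably expressing 5HT2A, loaded 30–60 min at 37 °C with calcium-sensitive dye in HBSS/20 mM Hepes with 2.5 mM probenecid. Compound added 5 s into a 2-min FLIPR Tetra fluorescence read at room temperature; % activity relative to vehicle and maximal control-ligand RFU.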

[3] = tested on: rat cortical neurons; assay: Neurite outgrowth assay; details: Cortical neurone, 1 hour treatment at DIV 4, analysed DIV 7, fold vs DMSO control
Method in brief: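 Embryonic day 18 rat cortical neurons, 20,000 cells/well in Neurobasal/B27, were exposed at DIV 4 to 10 μM compound for 1 hour, then washed out. At DIV 7, β-III-tubulin immunostaining and automated imaging gave neurite length, branch points, root and extremity counts, reported as fold-change versus DMSO; triplicates.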

[4] = read-out: Neurite Average Length @ 10 μM
[5] = read-out: Neurite Branch Points: @ 10 μM

| SMILES | 5HT2A Antagonist mean @ 100 nM (%) [1] | 5HT2A Antagonist mean @ 10 μM (%) [1] | 5HT2A Antagonist mean @ 100 μM (%) [1] | EC50 [2] [µM] | fold induction at 10 µM [3, 4] | fold induction at 10 µM [3, 5] |
| --- | --- | --- | --- | --- | --- | --- |
| COc1cccc2c1ccn2CCN(C)C.O=C(O)/C=C/C(=O)O [Example 3, 2-(4-methoxy-1H-indol-1-yl)-N,N-dimethylethan-1-amine] | A (inhibits 5HT response by >100%) | A (inhibits 5HT response by >100%) | A (inhibits 5HT response by >100%) | > 10 | < 1.5 | 1.5 to 3 |
| COc1ccc2c(ccn2CCN(C)C)c1.O=C(O)/C=C/C(=O)O [Example 4, 2-(5-methoxy-1H-indol-1-yl)-N,N-dimethylethan-1-amine] | C (inhibits 5HT response by <75%) | B (inhibits 5HT response by 75% to 100%) | B (inhibits 5HT response by 75% to 100%) | > 10 | 1.5 to 3 | 1.5 to 3 |
| COc1ccc2ccn(CCN(C)C)c2c1 [Example 5, 2-(6-methoxy-1H-indol-1-yl)-N,N-dimethylethan-1-amine] | B (inhibits 5HT response by 75% to 100%) | B (inhibits 5HT response by 75% to 100%) | B (inhibits 5HT response by 75% to 100%) | < 10 | 1.5 to 3 | 1.5 to 3 |
| COc1cccc2ccn(CCN(C)C)c12.O=C(O)/C=C/C(=O)O [Example 6, 2-(7-methoxy-1H-indol-1-yl)-N,N-dimethylethan-1-amine] | A (inhibits 5HT response by >100%) | A (inhibits 5HT response by >100%) | A (inhibits 5HT response by >100%) | < 10 | 1.5 to 3 | 1.5 to 3 |
| COc1ccc2c(ccn2C[C@@H](C)N(C)C)c1 [Example 59, (R)-1-(5-methoxy-1H-indol-1-yl)-N,N-dimethylpropan-2-amine] | B (inhibits 5HT response by 75% to 100%) | A (inhibits 5HT response by >100%) | A (inhibits 5HT response by >100%) | > 10 | 1.5 to 3 | > 3 |
| C[C@H](Cn1ccc2cc(F)ccc21)N(C)C [Example 60, (R)-1-(5-fluoro-1H-indol-1-yl)-N,N-dimethylpropan-2-amine] | C (inhibits 5HT response by <75%) | B (inhibits 5HT response by 75% to 100%) | B (inhibits 5HT response by 75% to 100%) | > 10 | 1.5 to 3 | 1.5 to 3 |
